Tests used:
Format in all cases: in vivo
[1] = tested on: Echinochloa crus-galli (ECHCG); experiment: Test Example 1 post-emergence herbicidal activity; settings: 360 h, rate 125 g/ha, evaluated 15 days later, read-out: Post-emergence activity ECHCG (100=total damage to plant; 0=no damage to plant)
Summary of the method: (§1)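 Sow in pots of standard soil → grow 1 day (pre-emergence) or 10 days (post-emergence) in glasshouse → spray aqueous formulated compound → grow on under optimum conditions → score damage 0–100 at day 20 (pre) or day 15 (post).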

Lolium perenne (LOLPE) [2] = experiment: Test Example 1 post-emergence herbicidal activity; settings: 360 h, rate 125 g/ha, evaluated 15 days later, read-out: Post-emergence activity LOLPE (100=total damage to plant; 0=no damage to plant)
Summary of the method: as §1

[3] = tested on: Alopecurus myosuroides (ALOMY); experiment: Test Example 1 post-emergence herbicidal activity; settings: 360 h, rate 125 g/ha, evaluated 15 days later, read-out: Post-emergence activity ALOMY (100=total damage to plant; 0=no damage to plant)
Summary of the method: as §1

Avena fatua (AVEFA) [4] = experiment: Test Example 1 post-emergence herbicidal activity; settings: 360 h, rate 125 g/ha, evaluated 15 days later, read-out: Post-emergence activity AVEFA (100=total damage to plant; 0=no damage to plant)
Summary of the method: as §1

Setaria faberi (SETFA) [5] = experiment: Test Example 1 post-emergence herbicidal activity; settings: 360 h, rate 125 g/ha, evaluated 15 days later, read-out: Post-emergence activity SETFA (100=total damage to plant; 0=no damage to plant)
Summary of the method: as §1

[6] = tested on: Digitaria sanguinalis (DIGSA); experiment: Test Example 1 post-emergence herbicidal activity; settings: 360 h, rate 125 g/ha, evaluated 15 days later, read-out: Post-emergence activity DIGSA (100=total damage to plant; 0=no damage to plant)
Summary of the method: as §1

[7] = tested on: Echinochloa crus-galli (ECHCG); experiment: Test Example 1 pre-emergence herbicidal activity; settings: Echinochloa crus-galli, 480 h, rate 250 g/ha, evaluated 20 days later, read-out: Pre-emergence activity ECHCG (100=total damage to plant; 0=no damage to plant)
Summary of the method: as §1

Lolium perenne (LOLPE) [8] = experiment: Test Example 1 pre-emergence herbicidal activity; settings: Lolium perenne, 480 h, rate 250 g/ha, evaluated 20 days later, read-out: Pre-emergence activity LOLPE (100=total damage to plant; 0=no damage to plant)
Summary of the method: as §1

[9] = tested on: Alopecurus myosuroides (ALOMY); experiment: Test Example 1 pre-emergence herbicidal activity; settings: Alopecurus myosuroides, 480 h, rate 250 g/ha, evaluated 20 days later, read-out: Pre-emergence activity ALOMY (100=total damage to plant; 0=no damage to plant)
Summary of the method: as §1

Avena fatua (AVEFA) [10] = experiment: Test Example 1 pre-emergence herbicidal activity; settings: Avena fatua, 480 h, rate 250 g/ha, evaluated 20 days later, read-out: Pre-emergence activity AVEFA (100=total damage to plant; 0=no damage to plant)
Summary of the method: as §1

Setaria faberi (SETFA) [11] = experiment: Test Example 1 pre-emergence herbicidal activity; settings: Setaria faberi, 480 h, rate 250 g/ha, evaluated 20 days later, read-out: Pre-emergence activity SETFA (100=total damage to plant; 0=no damage to plant)
Summary of the method: as §1

[12] = tested on: Digitaria sanguinalis (DIGSA); experiment: Test Example 1 pre-emergence herbicidal activity; settings: Digitaria sanguinalis, 480 h, rate 250 g/ha, evaluated 20 days later, read-out: Pre-emergence activity DIGSA (100=total damage to plant; 0=no damage to plant)
Summary of the method: as §1

Row | SMILES | pest or weed control at 125 g/ha [1] [%] | pest or weed control at 125 g/ha (Lolium perenne (LOLPE) [2]) [%] | pest or weed control at 125 g/ha [3] [%] | pest or weed control at 125 g/ha (Avena fatua (AVEFA) [4]) [%] | pest or weed control at 125 g/ha (Setaria faberi (SETFA) [5]) [%] | pest or weed control at 125 g/ha [6] [%] | pest or weed control at 250 g/ha [7] [%] | pest or weed control at 250 g/ha (Lolium perenne (LOLPE) [8]) [%] | pest or weed control at 250 g/ha [9] [%] | pest or weed control at 250 g/ha (Avena fatua (AVEFA) [10]) [%] | pest or weed control at 250 g/ha (Setaria faberi (SETFA) [11]) [%] | pest or weed control at 250 g/ha [12] [%]
1 | CCCCC[C@]12C=C[C@H](O1)[C@@H]1C(=O)C(c3c(C)cc(C)cc3C)=C(O)[C@@H]12 (racemic) [Example T42] | 60 | 10 | 0 | 0 | 0 | 20 | 30 | 0 | 0 | 10 | 0 | 0
2 | C#CCOC(=O)OC1=C(c2c(CC)cc(C)cc2CC)C(=O)[C@@H]2[C@H]1[C@H]1CC[C@@H]2O1 (racemic) [Example P25] | 100 | 100 | 100 | 90 | 80 | 80 | 100 | 100 | 100 | 100 | 100 | 100
3 | CCc1cc(C)cc(CC)c1C1=C(O)[C@@H]2[C@@H]3O[C@@H](C[C@H]3c3ccccc3[N+](=O)[O-])[C@@H]2C1=O [Example T177] | 80 | 30 | 80 | 70 | 20 | 30 | 70 | 70 | 60 | 50 | 50 | 10
4 | C=C[C@@H]1C[C@@H]2O[C@H]1[C@H]1C(O)=C(c3c(C)cc(C)cc3C)C(=O)[C@H]12 (racemic) [Example T99] | 100 | 10 | 80 | 30 | 70 | 60 | 100 | 100 | 80 | 60 | 80 | 80
5 | CCc1cc(C)cc(CC)c1C1=C(OC(=O)C2CCCCC2)[C@H]2[C@@H](C1=O)[C@@H]1CC[C@H]2O1 (racemic) [Example P17] | 100 | 100 | 100 | 90 | 100 | 100 | 100 | 100 | 90 | 90 | 100 | 100
6 | CCc1cc(C)cc(CC)c1C1=C(O)[C@@H]2[C@@H]3O[C@@H](C[C@H]3c3cccc(C)c3)[C@@H]2C1=O [Example T179] | 70 | 80 | 80 | 80 | 10 | 50 | 70 | 80 | 70 | 60 | 10 | 60
7 | Cc1cc(C)c(C2=C(OC(=O)OC(C)C)[C@H]3[C@@H](C2=O)[C@@H]2CC[C@H]3O2)c(C)c1 (racemic) [Example P4] | 100 | 100 | 100 | 90 | 90 | 80 | 90 | 100 | 100 | 100 | 70 | 90
8 | CCc1cc(C)cc(C)c1C1=C(O)[C@H]2[C@@H](C1=O)[C@@H]1CC[C@H]2O1 [Example T2] | 100 | 100 | 100 | 90 | 80 | 100 | 100 | 100 | 100 | 100 | 90 | 100
9 | Cc1cc(C)c(C2=C(O)[C@H]3[C@@H](C2=O)[C@@H]2C=C[C@@]3(C(C)O)O2)c(C)c1 (mixture of isomers) [Example T39] | 70 | 0 | 10 | 20 | 60 | 70 | 30 | 30 | 10 | 20 | 40 | 30
10 | CCOC(=O)OC1=C(c2c(CC)cc(C)cc2CC)C(=O)[C@@H]2[C@H]1[C@H]1CC[C@@H]2O1 (racemic) [Example P18, carbonic acid (1RS,2SR,6RS,7SR)-5-oxo-4-(2,6-diethyl-4-methylphenyl)-10-oxatricyclo[5.2.1.0^2,6]-dec-3-en-3-yl ester ethyl ester] | 100 | 80 | 90 | 50 | 70 | 70 | 100 | 100 | 100 | 100 | 100 | 100
11 | Cc1cc(C)c(C2=C(O)[C@@H]3[C@@H]4O[C@@H](C[C@H]4c4nc(C)cnc4C)[C@@H]3C2=O)c(C)c1 [Example T193] | 60 | 30 | 60 | 40 | 30 | 60 | 20 | 60 | 20 | 30 | 40 | 20
12 | CCc1ccc(Br)cc1C1=C(O)[C@H]2[C@@H](C1=O)[C@@H]1CC[C@H]2O1 [Example T134] | 70 | 20 | 20 | 20 | 50 | 20 | 20 | 70 | 60 | 20 | 0 | 50
13 | CCC(=O)OC[C@]12C=C[C@H](O1)[C@@H]1C(=O)C(c3c(C)cc(C)cc3C)=C(O)[C@@H]12 [Example T59] | 80 | 0 | 50 | 40 | 70 | 80 | 30 | 30 | 10 | 20 | 40 | 50

— patent US8754242B2, “Herbicides” (Syngenta Crop Protection LLC, priority 2007, dated 2014)
